Data taken from patent publication US8507499B2, “Substituted indole/indazole-pyrimidinyl compounds” (Confluence Life Sciences, Inc., priority 2010, dated 2013).
Where “and” joins values, the source holds several entries; their conditions need not be identical. Identical values can stand only once.

Biological target: p38/MK2 (Homo sapiens, UniProt Q16539)
Test: p38α/MK2 cascade assay (phosphorylation of Hsp27 peptide, Caliper LabChip 3000)
Format: biochemical
Details: Hsp27 peptide 1 μM, MgATP 10 μM, two values printed in one cell
Method: The novel, MK2 substrate-selective inhibitory mechanism of compounds is evaluated in enzyme assays comparing inhibitor potency in blocking p38/MK2 versus p38/PRAK induced phosphorylation of an HSP-27 derived peptide substrate. The ability of compounds to inhibit activated phospho-p38α is evaluated using a p38α/MK2 and a p38α/PRAK cascade assay format. The kinase activity of p38α is determined by its ability to phosphorylate GST-MK2 or GST-PRAK. Activation of MK2 or PRAK by p38α is quantitated by measuring the phosphorylation of a fluorescently-labeled, MK2 specific peptide substrate, Hsp27 peptide (FITC-KKKALSRQLSVAA). The phosphorylation of the Hsp27 peptide is quantified using the Caliper LabChip 3000. Kinase reactions are carried out in a 384-well plate (Matrical, MP101-1-PP) in 20 mM HEPES pH 7.5, 10 mM MgCl2, 0.0005% Tween-20, 0.01% BSA, 1 mM DTT, and 2% DMSO. […] The p38α compound inhibitory potency is quantitated from dose-response IC50 values or Ki values from p38α/MK2 cascade assays while the substrate selectivity is calculated as a ratio of p38α/PRAK:p38α/MK2 IC50 values. Species compounds of Formula I, described hereinabove, evaluated in this assay, are expected to provide a therapeutic benefit in the treatment of p38 kinase mediated diseases, such as autoimmune diseases and lymphoma.

Sequence of p38/MK2 (Q16539 whole entry): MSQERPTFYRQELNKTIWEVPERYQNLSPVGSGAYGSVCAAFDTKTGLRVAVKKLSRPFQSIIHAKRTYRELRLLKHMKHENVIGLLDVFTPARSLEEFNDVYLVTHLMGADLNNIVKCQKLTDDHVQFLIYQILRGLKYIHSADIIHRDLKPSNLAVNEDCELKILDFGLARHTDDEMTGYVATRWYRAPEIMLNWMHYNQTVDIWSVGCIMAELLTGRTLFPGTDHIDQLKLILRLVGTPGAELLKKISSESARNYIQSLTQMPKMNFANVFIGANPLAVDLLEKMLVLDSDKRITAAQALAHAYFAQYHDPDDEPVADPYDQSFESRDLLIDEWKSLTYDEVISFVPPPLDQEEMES

IC50: 2.89 µM and 3.86 µM
Compound: CC(C)(C)c1nccc(-c2c[nH]c3cc(Cl)c(C(=O)N4CCC(Cc5ccc(F)cc5)CC4)cc23)n1 [Example 57, (3-(2-tert-Butyl-pyrimidin-4-yl)-6-chloro-1H-indol-5-yl)-(4-(4-fluorobenzyl)-piperidin-1-yl)-methanone]
